Data: ChEMBL document CHEMBL1221180, “Metabolic installation of thiols into sialic acid modulates adhesion and stem cell biology” (Nat Chem Biol, 2006)
The source made the active and inactive calls. The calls are words filed in the database; no cut-off is given here.

Tests used:
[1] = test system: Jurkat; experiment: Induction of human Jurkat cell adhesion assessed as covalent cellular attachment to BSA-coated superaldehyde glass surface at 100 uM after 48 hrs by fluorescence microscopy in absence of maleimide coating; format: functional, cell-based
[2] = test system: Lvec; experiment: Effect on human LVEC cell morphology cultured on gold-coated cover slips at 10 uM measured on day 9 post treatment by DAPI staining-based confocal microscopy; format: functional
[3] = test system: Jurkat; experiment: Induction of human Jurkat cell adhesion assessed as spontaneous clustering of cells at 50 uM after 2 days by inverted microscopy; format: functional, cell-based
[4] = test system: Jurkat; experiment: Increase in N-thioglycolylneuraminic acid level in human Jurkat cells at 10 uM after 2 hrs by avidin-FITC staining-based FACS analysis in absence of disulfide reducing agent TCEP relative to untreated control; format: functional
[5] = Induction of human LVEC cell differentiation into neural cell lineage cultured on gold-coated cover slips assessed as effect on cytoskeleton distribution at 10 uM measured on day 9 post treatment by DAPI staining-based confocal microscopy; format: functional
[6] = test system: Lvec; experiment: Increase in N-thioglycolylneuraminic acid level in human LVEC after 7 days by avidin-FITC staining-based FACS analysis relative to untreated control; format: functional, cell-based
[7] = test system: Lvec; experiment: Mild increase in beta-casein expression in human LVEC cultured on glass surface at 10 uM after 13 days by oregon green 488 phalloidin and DAPI staining; format: functional, cell-based
[8] = test system: Jurkat; experiment: Increase in cell surface thiol level in human Jurkat cells at 40 uM after 2 days by avidin-FITC staining-based FACS analysis relative to untreated control; format: functional
[9] = test system: Lvec; experiment: Translocation of beta-casein into nucleus of human LVEC cultured on gold-coated cover slips at 10 uM after 13 days by oregon green 488 phalloidin and DAPI staining; format: functional, cell-based
[10] = test system: Lvec; experiment: Increase in N-thioglycolylneuraminic acid level in human LVEC at 10 uM after 7 days by avidin-FITC staining-based FACS analysis relative to untreated control; format: functional
[11] = test system: Lvec; experiment: Increase in N-thioglycolylneuraminic acid level in human LVEC at 10 uM after 3 days by avidin-FITC staining-based FACS analysis; format: functional, cell-based
[12] = test system: Jurkat; experiment: Increase in cell surface thiol level in human Jurkat cells at 10 uM after 64 hrs by avidin-FITC staining-based FACS analysis relative to untreated control; format: functional
[13] = Decrease in human LVEC cell proliferation at 10 uM for 3 days followed by second treatment of 50 uM on day 4 measured on day 9 by nestin immunostaining; format: cell-based; details: 72 h
[14] = test system: Jurkat; experiment: Cytotoxicity against human Jurkat cells at 100 uM after 48 hrs; format: cell-based
[15] = test system: Jurkat; experiment: Induction of human Jurkat cell adhesion assessed as covalent cellular attachment to maleimide functionalized BSA-coated superaldehyde glass surface at 100 uM after 48 hrs by fluorescence microscopy; format: functional, cell-based
[16] = test system: Jurkat; experiment: Increase in cell surface thiol level in human Jurkat cells at 160 uM after 64 hrs by avidin-FITC staining-based FACS analysis relative to untreated control; format: functional
[17] = test system: Jurkat; experiment: Increase in N-thioglycolylneuraminic acid level in human Jurkat cells at 10 uM after 2 hrs by avidin-FITC staining-based FACS analysis in presence of disulfide reducing agent TCEP relative to untreated control; format: functional
[18] = test system: Jurkat; experiment: Increase in cell surface thiol level in human Jurkat cells at 320 uM after 64 hrs by avidin-FITC staining-based FACS analysis relative to untreated control; format: functional
[19] = test system: Lvec; experiment: Increase in beta-casein expression in human LVEC cultured on gold-coated cover slips at 10 uM after 13 days by oregon green 488 phalloidin and DAPI staining; format: functional, cell-based
[20] = test system: Jurkat; experiment: Modulation of cell surface thiol level in human Jurkat cells at 100 uM after 64 hrs by avidin-FITC staining-based FACS analysis; format: functional

Compound: CC(=O)OC[C@H]1O[C@H](OC(C)=O)[C@@H](NC(=O)CSC(C)=O)[C@@H](OC(C)=O)[C@@H]1OC(C)=O
- Activity [1]: inactive
- Activity [2]: Active
- Activity [3]: Active
- fold change (FC) [4]: 13
- Activity [5]: Active
- Activity [6]: Dose-dependent effect
- Activity [7]: Active
- fold change (FC) [8]: 14
- Activity [9]: Active
- fold change (FC) [10]: 15
- Activity [11]: Active
- fold change (FC) [12]: 19
- Activity [13]: Toxic
- Activity [14]: Non-toxic
- Activity [15]: Active
- fold change (FC) [16]: 40
- fold change (FC) [17]: 120
- fold change (FC) [18]: 34
- Activity [19]: Active

Compound: CC(=O)N[C@@H]1C(OC(C)=O)O[C@H](COC(C)=O)[C@@H](OC(C)=O)[C@@H]1OC(C)=O (stereo partly specified)
- fold change (FC) [18]: 34

Compound: CC(=O)OCC(=O)N[C@@H]1[C@@H](OC(C)=O)O[C@H](COC(C)=O)[C@@H](OC(C)=O)[C@@H]1OC(C)=O
- Activity [1]: inactive
- Activity [2]: inactive
- Activity [3]: Active
- Activity [20]: inactive
- Activity [15]: Active

Compound: CC(=O)CCC(=O)N[C@@H]1C(OC(C)=O)O[C@H](COC(C)=O)[C@@H](OC(C)=O)[C@@H]1OC(C)=O (stereo partly specified)
- fold change (FC) [18]: 34
